Data: patent publication US11845959B2, “Identification of factor that promotes human HSC self-renewal” (THE REGENTS OF THE UNIVERSITY OF CALIFORNIA, priority 2016, dated 2023)

Test system: human HSPC
Assay: Flavopiridol treatment of human HSPC, HSPC expansion in culture (FACS, total HSPC expansion over time)
Assay type: cell-based
Conditions: 100 nM, similarly to MLLT3 overexpression
Description: We investigated whether an effect on transcription elongation by a different factor might change the effect. We determined that Treatment of human HSPC with Flavopiridol, a regulator of transcription elongation machinery, expands HSPC in culture.

CN1CC[C@H](c2c(O)cc(O)c3c(=O)cc(-c4ccccc4Cl)oc23)[C@H](O)C1 [Flavopiridol]
HSPC expansion in culture: sustained HSPC expansion in culture
